These are literature values, as cited in US20040052855A1, “Microparticles of biodegradable polymer encapsulating a biologically active substance and sustained release pharmaceutical formulations containing same” (priority 2003, published 2004).

The conditions of the data set: in water at 20-25° C.

SMILES strings stand for the structures.

Turning to `ClCCl` [dichloromethane], the solubility in water was 1.32 % (by weight).
Turning to `CCOC(C)=O` [ethyl acetate], the solubility in water is reported as 8.70 % (by weight).
